Test results taken from ChEMBL document CHEMBL1123684, “Synthesis and biological properties of 9-(trans-4-hydroxy-2-buten-1-yl)adenine and guanine: open-chain analogues of neplanocin A” (1987).
Calls of active or inactive are those of the source. The rule behind the calls is not given here.

What was measured:
L1210 [1] = assay: Apparent inhibition of incorporation of labeled thymidine into DNA in murine leukemia L1210 cell;No inhibition; type: functional, cell-based; conditions: Mus musculus
[2] = test system: Vesicular stomatitis virus; assay: Antiviral activity against vesicular stomatis virus (VSV); Inactive; type: functional, organism-based
L1210 [3] = assay: Percent inhibition of growth of murine leukemia L1210 cell culture at 1 mM was determined.; type: functional; conditions: Mus musculus
Human alphaherpesvirus 1 = assay: Antiviral activity against herpes simplex virus-1 (HSV 1); Inactive; type: functional, organism-based
Human alphaherpesvirus 2 = assay: Antiviral activity against herpes simplex virus 2 (HSV 2); Inactive; type: functional, organism-based

Row | Structure (SMILES) | Activity (L1210 [1]) | Activity [2] | inhibition at 1000 µM (L1210 [3]) | Activity (Human alphaherpesvirus 1) | Activity (Human alphaherpesvirus 2)
1 | Nc1ccn([C@@H]2O[C@H](CO)[C@@H](O)[C@@H]2O)c(=O)n1 | inactive |  |  |  | 
2 | Nc1ncnc2c1ncn2[C@@H]1C=C(CO)[C@@H](O)[C@H]1O [NEOPLANOCIN A] |  | inactive | 50% | inactive | inactive
3 | Nc1nc(O)c2ncn([C@@H]3C=C(CO)[C@@H](O)[C@H]3O)c2n1 |  | inactive | 50% | inactive | inactive
